Test results: the supplement of paper PMC10307832

Experiments:
Test in all cases: relative viability (nuclei count vs DMSO), 5 days (fraction); higher = more cells survive
FH535 + Dasatinib = compound: CC1=C(C=CC(=C1)[N+](=O)[O-])NS(=O)(=O)C2=C(C=CC(=C2)Cl)Cl [FH535] + Cc1nc(Nc2ncc(C(=O)Nc3c(C)cccc3Cl)s2)cc(N2CCN(CCO)CC2)n1 [Dasatinib] (partner 0.075 µM)
In short: (§1)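 Relative viability was taken as the ratio of nuclei in treated wells to nuclei in vehicle wells. Lung cancer cell lines in 1536-well plates received compounds by pin tool one day after seeding, either one drug alone or a fixed anchor-drug dose plus five library-drug doses (not always all listed) in √10 steps. Nuclei were counted on 4× images after 5 days of treatment, and values are medians of duplicate plates.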

FH535 + Navitoclax = compound: CC1=C(C=CC(=C1)[N+](=O)[O-])NS(=O)(=O)C2=C(C=CC(=C2)Cl)Cl [FH535] + CC1(C)CCC(c2ccc(Cl)cc2)=C(CN2CCN(c3ccc(C(=O)NS(=O)(=O)c4ccc(N[C@H](CCN5CCOCC5)CSc5ccccc5)c(S(=O)(=O)C(F)(F)F)c4)cc3)CC2)C1 [Navitoclax] (partner 0.5 µM)
In short: as §1

FH535 + Foretinib = compound: CC1=C(C=CC(=C1)[N+](=O)[O-])NS(=O)(=O)C2=C(C=CC(=C2)Cl)Cl [FH535] + COc1cc2c(Oc3ccc(NC(=O)C4(C(=O)Nc5ccc(F)cc5)CC4)cc3F)ccnc2cc1OCCCN1CCOCC1 [Foretinib] (partner 0.25 µM)
In short: as §1

FH535 + Olaparib = compound: CC1=C(C=CC(=C1)[N+](=O)[O-])NS(=O)(=O)C2=C(C=CC(=C2)Cl)Cl [FH535] + O=C(c1cc(Cc2n[nH]c(=O)c3ccccc23)ccc1F)N1CCN(C(=O)C2CC2)CC1 [Olaparib] (partner 8 µM)
In short: as §1

FH535 + Decitabine = compound: CC1=C(C=CC(=C1)[N+](=O)[O-])NS(=O)(=O)C2=C(C=CC(=C2)Cl)Cl [FH535] + Nc1ncn([C@H]2C[C@H](O)[C@@H](CO)O2)c(=O)n1 [Decitabine] (partner 2 µM)
In short: as §1

Row | Cell Line | relative viability (FH535 + Dasatinib; first compound 0.04 µM) | relative viability (FH535 + Dasatinib; first compound 0.1265 µM) | relative viability (FH535 + Dasatinib; first compound 0.4 µM) | relative viability (FH535 + Dasatinib; first compound 1.265 µM) | relative viability (FH535 + Navitoclax; first compound 0.04 µM) | relative viability (FH535 + Navitoclax; first compound 0.1265 µM) | relative viability (FH535 + Navitoclax; first compound 0.4 µM) | relative viability (FH535 + Navitoclax; first compound 1.265 µM) | relative viability (FH535 + Foretinib; first compound 0.04 µM) | relative viability (FH535 + Foretinib; first compound 0.1265 µM) | relative viability (FH535 + Foretinib; first compound 0.4 µM) | relative viability (FH535 + Foretinib; first compound 1.265 µM) | relative viability (FH535 + Olaparib; first compound 0.04 µM) | relative viability (FH535 + Olaparib; first compound 0.1265 µM) | relative viability (FH535 + Olaparib; first compound 0.4 µM) | relative viability (FH535 + Olaparib; first compound 1.265 µM) | relative viability (FH535 + Decitabine; first compound 0.04 µM) | relative viability (FH535 + Decitabine; first compound 0.1265 µM) | relative viability (FH535 + Decitabine; first compound 0.4 µM) | relative viability (FH535 + Decitabine; first compound 1.265 µM)
1 | PC-3 [JPC-3] | 1.05 | 0.812 | 0.837 | 0.749 | 0.778 | 0.753 | 0.762 | 0.57 | 1 | 1 | 0.879 | 0.582 | 1.12 | 1.08 | 1.04 | 0.733 | 0.865 | 0.805 | 0.756 | 0.74
2 | NCI-H596 | 0.673 | 0.574 | 0.604 | 0.55 | 0.856 | 0.967 | 1.05 | 0.874 | 0.833 | 0.899 | 0.852 | 0.819 | 0.725 | 0.815 | 0.733 | 0.598 | 0.983 | 1.06 | 1 | 0.976
3 | NCI-H1755 | 0.353 | 0.46 | 0.404 | 0.422 | 0.996 | 0.997 | 1.01 | 0.79 | 0.862 | 0.894 | 0.874 | 0.854 | 0.867 | 0.857 | 0.8 | 0.869 | 0.667 | 0.725 | 0.679 | 0.699
4 | NCI-H2087 | 0.685 | 0.711 | 0.714 | 0.675 | 0.811 | 1.11 | 0.947 | 0.518 | 1.05 | 1.07 | 0.916 | 0.766 | 0.391 | 0.553 | 0.516 | 0.378 | 0.26 | 0.225 | 0.194 | 0.18
5 | NCI-H2023 | 0.601 | 0.616 | 0.49 | 0.459 | 1 | 1 | 1.04 | 0.804 | 0.876 | 0.995 | 0.699 | 0.743 | 0.48 | 0.5 | 0.474 | 0.368 | 0.218 | 0.223 | 0.236 | 0.213
6 | NCI-H2085 | 0.271 | 0.174 | 0.284 | 0.217 | 1.1 | 1.05 | 1.05 | 0.846 | 1.01 | 0.869 | 0.89 | 0.59 | 0.818 | 0.713 | 0.749 | 0.571 | 0.542 | 0.512 | 0.572 | 0.431
7 | LCLC-97TM1 | 0.726 | 0.797 | 0.811 | 0.77 | – | 0.446 | 0.392 | 0.304 | 0.854 | 0.949 | 1.03 | 0.679 | 0.407 | 0.342 | 0.314 | 0.274 | 0.247 | 0.273 | 0.247 | 0.187
8 | NCI-H2126 | 0.598 | 0.573 | 0.49 | 0.292 | 0.779 | 0.875 | 0.778 | 0.628 | 0.955 | 1.31 | 1.06 | 0.601 | 0.928 | 0.896 | 0.822 | 0.525 | 0.59 | 0.582 | 0.574 | 0.415
